According to article PMC4459817, “Vasculotide reduces endothelial permeability and tumor cell extravasation in the absence of binding to or agonistic activation of Tie2” (EMBO Molecular Medicine, 2015):
“Also recorded” adds a separate entry of the source.

Legend:
[1] = target: T1, mouse Tie2-Fc (mTie2-Fc) (Mus musculus, UniProt Q02858); test: SPR binding to mouse Tie2-Fc; settings: mouse Tie2-Fc (low- and high-density), 37°C, pH 7.4, Supplementary Fig S3
T1 construct: Purified human or mouse Tie2-Fc (i.e., Fc-conjugated extracellular domains of Tie2); purchased R&D Systems 762-T2-100
T1 sequence (Q02858 23-746 limits assumed): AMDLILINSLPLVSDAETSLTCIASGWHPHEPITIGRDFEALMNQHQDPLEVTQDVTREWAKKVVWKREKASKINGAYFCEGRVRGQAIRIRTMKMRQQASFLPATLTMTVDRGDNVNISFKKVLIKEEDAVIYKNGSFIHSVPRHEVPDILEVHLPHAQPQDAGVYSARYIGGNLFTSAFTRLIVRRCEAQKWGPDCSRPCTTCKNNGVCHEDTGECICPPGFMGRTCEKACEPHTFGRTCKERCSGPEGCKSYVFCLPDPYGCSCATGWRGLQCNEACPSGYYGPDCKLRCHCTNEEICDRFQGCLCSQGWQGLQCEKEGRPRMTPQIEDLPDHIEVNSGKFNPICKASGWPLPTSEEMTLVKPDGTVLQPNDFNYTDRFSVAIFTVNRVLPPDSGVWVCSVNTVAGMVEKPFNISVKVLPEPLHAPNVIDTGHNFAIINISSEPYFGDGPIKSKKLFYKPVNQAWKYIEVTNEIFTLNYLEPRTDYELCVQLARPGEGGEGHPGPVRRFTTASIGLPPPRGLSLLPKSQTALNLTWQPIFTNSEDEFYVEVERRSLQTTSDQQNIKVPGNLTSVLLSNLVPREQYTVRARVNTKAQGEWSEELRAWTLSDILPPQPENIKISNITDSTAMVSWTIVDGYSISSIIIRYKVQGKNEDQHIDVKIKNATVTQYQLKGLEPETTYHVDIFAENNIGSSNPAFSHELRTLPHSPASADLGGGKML
Text: To better understand the difficulties we had in observing Tie2 activation by VT, we sought to characterize the binding affinity and kinetics of VT to Tie2. Purified human or mouse Tie2-Fc (i.e., Fc-conjugated extracellular domains of Tie2) were first coupled to protein A sepharose beads for pull-down experiments (Fig9A and B) or immobilized on a Biacore CM5 sensor chip for surface plasmon resonance (SPR) experiments (Fig9C and Supplementary Fig S3). […]
9. Tie2 Receptor-Binding Assays
Vasculotide (VT) was manufactured by Bachem UK Ltd. T7c (CHHHRHSF) was synthesized by Genscript (Piscataway, NJ, USA). PEG-Cys consists of a single cysteine reacted to each of the 4 arms of PEG-maleimide (Sunbright PTE-100MA, NOF Corporation, Tokyo, Japan). BowAng1 (Ang1-Fd-Fc-Fd) was made and provided by Regeneron Pharmaceuticals, Inc. (Tarrytown, NY, USA). COMP-Ang1 was purified in the Kerbel lab from serum-free culture media conditioned by an engineered CHO cell line provided by Dr. Gou Young Koh (KAIST), according to published protocols (Hwang et al, 2008).
Recombinant human Angiopoietin-1 (rhAng1) and Vascular Endothelial Growth Factor ( rhVEGF) were […]
purchased from R&D Systems. […]
(structural/molecular weight control for VT), and 40 μL of supernatant (7% of residual/unbound ligand) – were similarly boiled in SDS sample buffer. […]
Binding analysis were performed by exposure of immobilized mTie2-Fc to the analytes diluted in HBS-EP (0.01M HEPES pH 7.4, 0.15M NaCl, 3mM EDTA, 0.005% v/v Tween-20), which was supplemented with 1mg/mL carboxymethyl dextran (NSB reducer, GE Healthcare) to reduce non-specific binding to the sensor chip. […] To quantitatively determine the kinetic properties of the interaction (KD, kd, ka) and avoid mass transport limitations, mTie2-Fc and hTie2-Fc were immobilized at low density (1,000-1,200RU) onto separate flow cells of the CM5 chip using amine coupling chemistry. […] All data were analysed using BIA Evaluation Software 2.0 (GE Healthcare) to calculate kd, ka and KD using the 1:1 ligand binding model. […]

[2] = system: human microvascular ECs of dermal blood vessel origin (HMVEC-DBl); test: modified Boyden chamber, thrombin-stimulated FITC-dextran permeability, HMVEC-DBl; format: cell-based; settings: HMVEC-DBl; structural control alone; Fig1D
Experimental: ECs were first treated with Vasculotide (VT), PBS (vehicle/negative control), Ang1 (positive control), PEG-Cys (polyethylene glycol backbone), T7c (non-PEGylated CHHHRHSF peptides), or VT in the presence of 100-fold molar excess of T7c. The concentrations used, 10–20 ng/mL VT and 200–400 ng/mL Ang1, are estimated molar equivalents (0.71–1.43 nM). Thirty minutes later, ECs were stimulated with thrombin, 0.1% BSA (vehicle/negative control), or EDTA (positive control). Another 30mins later, the amount of FITC-dextran diffusion into the lower chambers (A, D) provides a measure of endothelial permeability. CMTPX-labeled tumor cells (TCs) were then dispensed into inserts, and the amount of TC fluorescence emitting from the underside of insert membranes after 20 h (B–C) or 28 h (E) reflects the efficiency of trans-endothelial TC migration. Representative fluorescent images (10×) of membrane undersides are shown in (C), where DAPI-stained nuclei of ECs/TCs are shown in blue, ‘extravasated’ CMTPX-labeled TCs are shown in red, and the # of CMTPX^+ pixels are shown numerically in red. Means ± SEM are shown (A,B,D,E). Three experiments (twice with HMVEC-LBl and once with HMVEC-DBl) were run with n = 3–5 inserts (independent biological replicates) per group and analyzed by two-sampled unpaired t-tests. […]
Endothelial cells (ECs) were grown on cell culture inserts with uncoated 8-μm-pore PET filter membranes to 100% confluency. […] After 30 min of thrombin stimulation or 4–6 h of TC-CM stimulation, FITC fluorescence (ex/em = 490/520 nm) was measured from a 50 μl sample of the lower chamber media. […] CMPTX fluorescence from migrated TCs was then quantified from 10× microscopy images using a MATLAB (MathWorks, Natick, MA, USA) script; five images (technical replicates) were analyzed per insert. […]

In the case of “CHHHRHSF [T7c, non-PEGylated CHHHRHSF peptides, reference compound]”, the “binding to Tie2-Fc” value [1] is reported as “no binding to Tie2-Fc was detectable; also recorded: undetectable binding” and the “trans-endothelial permeability, structural components of VT” value [2] is reported as “partial effects”.
